Data as given in patent publication US5541174A, “Analgesic method” (priority 1995, dated 1996).

Assays:
[1] = test system: adjuvant-induced arthritic pain in rats; experiment: Adjuvant-induced arthritic pain; assay type: in vivo, male Sprague-Dawley rats
Text: 2. Adjuvant-induced arthritic pain as described in:
S. KUZNA, et al., Measurement of Arthritic Pain and Effects of Analgesics in the Adjuvant-Treated Rat, Chem. Pharm. Bull. 23, 1184-1191 (1975);
C. A. WINTER, et al., Analgesic Activity of Diflunisal in Rats with Hyperalygesia Induced by Freud's Adjuvant, J. Pharmacol. Exp. Ther. 211, 678-685 (1979; and
M. E. ROSENTHALE, et al., Adjuvant Arthritis:Immuno-Pathological and Hyperalgesic Features, Fed. Proced. 41, 2577-2582 (1982),
incorporated by reference herein.
Groups of 5-6 male Sprague-Dawley rats (Taisho Pharmaceutical Co. Research Center) weighing 140 to 160 g at the time of Mycobacterium butyricum (adjuvant, Difco Laboratories, Detroit, Mich.) injection were used to study each compound. Rats were injected intradermally at the base of the tail with 0.1 ml of a parafin oil suspension of 0.5 mg of heat-killed mycobacterium. Fifteen to 19 days later, drugs were administered orally or subcutaneously in 0.5 ml of vehicle per 100 g of body weight to rats showing the nociceptive reaction, vocalization following a gentle flexion of the tarsal-tibial joint of the inflamed hind-paw. Vocalization responses were measured every hour for 5 hours. […] The ED50 value and 95% confidence limits were calculated from the positive rate for non-treated controls, vehicle-treated adjuvant arthritic rats, by the method of Litchfield and Wilcoxin.
All drugs were suspended with 5% gum arabic in saline solution or wetted with enough propylene glycol to give a final concentration of 4% propylene glycol and the wetted solid suspended in 1.4% polyvinyl alcohol in saline.

[2] = test system: acetic acid induced writhing in mice; experiment: Acetic acid-induced writhing test; assay type: in vivo, ICR male mice
Experimental: 1. Acetic acid-induced writhing test as described in Koster et al., "Acetic Acid for Analgesic Screening", Fed. Proc. 18, 412 (1959), incorporated by reference herein; and
Groups of 10 ICR male mice (Taisho Pharmaceutical Co. Research Center) were used to study each dose of every compound. Ligands or complexes were administered orally or subcutaneously in 0.1 ml of vehicle per 10 g of body weight 30 minutes before the intrapertioneal injection of 0.1 ml of 0.7% acetic acid solution per 10 g of body weight. Number of writhes were counted for each mouse during a period of 10 to 20 min after acetic acid injection. Inhibitory percent was calculated by comparison with the number of writhes in the non-treated control, vehicle-treated, and acetic acid-injected group. The ED50 value and 95% confidence limits were calculated from the inhibitory percent by the method of Litchfield and Wilcoxon.

[3] = oral, 5% gum arabic, 0.30 mmol/kg
[4] = oral, 5% gum arabic, 0.60 mmol/kg
[5] = oral, 5% gum arabic, 0.18 mmol/kg
[6] = oral, 5% gum arabic, 0.71 mmol/kg

Nc1ccccc1C(=O)[O-].Nc1ccccc1C(=O)[O-].[Cu+2] [Cu(II)(anthranilate)2, Bisanthranilato(O,N)copper(II)]
analgesic effectiveness versus parent ligand ([1]; oral, 5% gum arabic): less effective than its parent ligand | ED50 ([1]; oral, 5% gum arabic in saline): > 0.60 mmol/kg | % Inhibition [1, 3]: 0% | % Inhibition [1, 4]: 10% | analgesic effectiveness versus parent ligand ([1]; oral, PG-PVA): less effective than its parent ligand | ED50 ([1]; oral, PG-PVA in saline): > 0.60 mmol/kg | % Inhibition ([1]; oral, PG-PVA, 0.60 mmol/kg): 17% | ED50 ([1]; s.c., PG-PVA in saline): 0.19 mmol/kg | % Inhibition ([1]; s.c., PG-PVA, 0.07 mmol/kg): 20% | % Inhibition ([1]; s.c., PG-PVA, 0.15 mmol/kg): 43% | % Inhibition ([1]; s.c., PG-PVA, 0.30 mmol/kg): 63% | ED50 ([2]; oral, 5% gum arabic in saline): 0.50 mmol/kg | analgesic effectiveness versus parent ligand ([2]; oral, 5% gum arabic in saline): more effective than their parent ligands | % Inhibition ([2]; oral, 5% gum arabic, 0.15 mmol/kg): 25% | % Inhibition [2, 3]: 47% | % Inhibition [2, 4]: 50% | analgesic effectiveness versus parent ligand ([2]; oral, PG-PVA): more effective than their parent ligands | ED50 ([2]; oral, PG-PVA in saline): > 0.89 mmol/kg | ED50 ([2]; s.c., PG-PVA in saline): 0.22 mmol/kg | % Inhibition ([2]; s.c., PG-PVA, 0.07 mmol/kg): 30% | % Inhibition ([2]; s.c., PG-PVA, 0.15 mmol/kg): 42% | % Inhibition ([2]; s.c., PG-PVA, 0.30 mmol/kg): 57%

[Cl][Cu][Cl] [Cu(II)(chloride)2, reference compound]
analgesic activity ([1]; doses statistically significantly analgesic in the writhing model): devoid of analgesic activity | ED50 ([1]; oral, PG-PVA in saline): > 2.24 mmol/kg | % Inhibition ([1]; oral, PG-PVA, 2.24 mmol/kg): 0% | ED50 ([1]; s.c., PG-PVA in saline): > 2.24 mmol/kg | % Inhibition ([1]; s.c., PG-PVA, 2.24 mmol/kg): 3% | ED50 ([2]; s.c., PG-PVA in saline): 0.60 mmol/kg | % Inhibition ([2]; s.c., PG-PVA, 0.56 mmol/kg): 48% | % Inhibition ([2]; s.c., PG-PVA, 1.12 mmol/kg): 69% | % Inhibition ([2]; s.c., PG-PVA, 2.24 mmol/kg): 83%

COc1ccc2c(c1)c(CC(=O)O)c(C)n2C(=O)c1ccc(Cl)cc1 [Indomethacin, reference compound]
ED50 ([1]; oral, 5% gum arabic in saline): 0.003 mmol/kg | % Inhibition ([1]; oral, 5% gum arabic, 0.001 mmol/kg): 27% | % Inhibition ([1]; oral, 5% gum arabic, 0.003 mmol/kg): 43% | % Inhibition ([1]; oral, 5% gum arabic, 0.006 mmol/kg): 77% | ED50 ([1]; oral, PG-PVA in saline): 0.02 mmol/kg | % Inhibition ([1]; oral, PG-PVA, 0.007 mmol/kg): 23% | % Inhibition ([1]; oral, PG-PVA, 0.014 mmol/kg): 43% | % Inhibition ([1]; oral, PG-PVA, 0.028 mmol/kg): 70% | ED50 ([2]; oral, 5% gum arabic in saline): 0.04 mmol/kg | % Inhibition ([2]; oral, 5% gum arabic, 0.01 mmol/kg): 36% | % Inhibition ([2]; oral, 5% gum arabic, 0.03 mmol/kg): 42% | % Inhibition ([2]; oral, 5% gum arabic, 0.06 mmol/kg): 58% | ED50 ([2]; oral, PG-PVA in saline): 0.01 mmol/kg | % Inhibition ([2]; oral, PG-PVA, 0.007 mmol/kg): 27% | % Inhibition ([2]; oral, PG-PVA, 0.014 mmol/kg): 60% | % Inhibition ([2]; oral, PG-PVA, 0.028 mmol/kg): 68% | ED50 ([2]; s.c., PG-PVA in saline): 0.02 mmol/kg | % Inhibition ([2]; s.c., PG-PVA, 0.007 mmol/kg): 19% | % Inhibition ([2]; s.c., PG-PVA, 0.014 mmol/kg): 36% | % Inhibition ([2]; s.c., PG-PVA, 0.056 mmol/kg): 60%

O=C(O)c1cccnc1Nc1cccc(C(F)(F)F)c1 [Niflumic acid, 2[3(trifluoro-methyl)phenyl] aminonicotinic acid, reference compound]
ED50 ([1]; oral, 5% gum arabic in saline): 0.42 mmol/kg | % Inhibition [1, 5]: 13% | % Inhibition [1, 6]: 87% | ED50 ([1]; oral, PG-PVA in saline): 0.48 mmol/kg | % Inhibition ([1]; oral, PG-PVA, 0.18 mmol/kg): 23% | % Inhibition ([1]; oral, PG-PVA, 0.71 mmol/kg): 60% | ED50 ([2]; oral, 5% gum arabic in saline): 0.15 mmol/kg | % Inhibition [2, 5]: 52% | % Inhibition [2, 6]: 75% | ED50 ([2]; oral, PG-PVA in saline): 0.21 mmol/kg | % Inhibition ([2]; oral, PG-PVA, 0.13 mmol/kg): 38% | % Inhibition ([2]; oral, PG-PVA, 0.27 mmol/kg): 51% | % Inhibition ([2]; oral, PG-PVA, 0.53 mmol/kg): 80% | ED50 ([2]; s.c., PG-PVA in saline): 0.10 mmol/kg | % Inhibition ([2]; s.c., PG-PVA, 0.04 mmol/kg): 21% | % Inhibition ([2]; s.c., PG-PVA, 0.09 mmol/kg): 54% | % Inhibition ([2]; s.c., PG-PVA, 0.18 mmol/kg): 64%
